{
  "source": "paper PMC12766721",
  "about": "“Regio- and Stereoselective Halogenation by an Iron(II)- and 2‑Oxoglutarate-Dependent Halogenase in the Biosynthesis of Halogenated Nucleosides” (Journal of the American Chemical Society, 2025)",
  "target": "AdeV",
  "test": "stopped-flow absorption kinetics (substrate-dependent formation of the […] nm chloro-ferryl feature), with freeze-quench Mössbauer and LC–MS turnover of purified enzyme",
  "type": "biochemical, Actinomadura sp. ATCC 39365",
  "data": [
    {"smiles": "Nc1ncnc2c1ncn2[C@H]1C[C@H](O)[C@@H](COP(=O)(O)O)O1", "note": "[compound 1, 2′-deoxyadenosine monophosphate]", "values": [
      {"measurement": "Kd", "value": "~28", "unit": "mM"}
    ]}
  ]
}
